Data on 19 molecules can be found in ChEMBL document CHEMBL5729391, “Acyclic antivirals” (2022).

Bounds are passed on as bounds.

This experiment is described as follows: Inhibition of HBV: Determination of 50% inhibitory concentration (EC50) of compounds in […] cells were performed by the following procedure. On the first day, cells were seeded at 30,000 cells per 100 μL well in Biocoat collage coated flat bottom 96 well plates. On the following day, test compounds were solubilized in 100% DMSO to 100× the desired final testing concentration. Each compound was then serially diluted (1:3) up to 9 different concentrations. Compounds in 100% DMSO are reduced to 10% DMSO by diluting 1:10 in assay media. The final DMSO concentration was 1%. The cells were incubated at 37° C. for 72 hours.The antiviral activity was measured using a quantitative kinetic reverse transcription-polymerase chain reaction (RT-PCR) assay directly measuring the HBV viral copy numbers from the supernatant of HepG2.117 cells. EC50 was defined as the concentration of compound at which the HBV viral copy numbers from the HepG2.117 cells was reduced 50% relative to its level in the absence of compound. HBV viral copy numbers are normalized to the level observed in the absence of inhibitor, which was defined as 100%. The experiment is classed as cell-based.

A word on the EC50: it is the concentration giving half of the maximal effect.

Regarding `CC(C)OC(=O)OCOP(=O)(COC(C)Cc1ccc2c(N)nc(N)nn12)OCOC(=O)OC(C)C` (centres undefined), the EC50 result is “in the range around 5.5 µM”.
Consider `Nc1ncnc2c(C[C@H](OCP(=O)(O)O)C(F)F)cnn12`, for which the EC50 result is “in the range around 5.5 µM”.
`CC(C)OC(=O)[C@H](C)NP(=O)(COC(C)Cc1cnc2c(=O)[nH]c(N)nn12)Oc1ccccc1` (some centres undefined) displayed an EC50 of less than 1 µM.
For `CC(C)OC(=O)[C@H](C)NP(=O)(CO[C@H](C)Cc1cnc2c(N)ncnn12)Oc1ccccc1` (some centres undefined) the value was less than 1 µM; for `Nc1ncnc2c(CC3(OCP(=O)(O)O)CC3)cnn12`, “in the range around 55 µM”; for `Nc1ncnn2c(C[C@@H](CF)OCP(=O)(O)O)cnc12`, “in the range around 55 µM”.
Molecule `Nc1ncnn2c(C[C@H](CF)OCP(=O)(O)O)cnc12` returned an EC50 of less than 1 µM.
Regarding `Nc1ncnc2c(C[C@@H](OCP(=O)(O)O)C(F)F)cnn12`, the EC50 entry was “in the range around 5.5 µM”.
Take `CC(C)OC(=O)OCOP(=O)(COC(CF)Cc1cnn2c(N)ncnc12)OCOC(=O)OC(C)C` (centres undefined): the EC50 was less than 1 µM.
Turning to `CC(Cc1cnc2c(=O)[nH]c(N)nn12)OCP(=O)(O)O` (centres undefined), the EC50 is less than 1 µM.
For the molecule `CC(C)OC(=O)OCOP(=O)(COCCc1ccc2c(N)ncnn12)OCOC(=O)OC(C)C`, the EC50 result was “in the range around 5.5 µM”.
`CC(C)OC(=O)[C@H](C)NP(=O)(CO[C@H](C)Cc1cnn2c(N)ncnc12)Oc1ccccc1` (some centres undefined) displayed an EC50 of less than 1 µM.
Molecule `CC(C)OC(=O)OCOP(=O)(CO[C@H](C)Cc1cnn2c(N)ncnc12)OCOC(=O)OC(C)C` came in with an EC50 greater than 100 µM.
Regarding `CC(C)OC(=O)[C@H](C)NP(=O)(CO[C@@H](CF)Cc1cnn2c(N)ncnc12)Oc1ccccc1` (some centres undefined), the half-maximal effective concentration (EC50) was less than 1 µM.
For `CC(C)OC(=O)OCOP(=O)(CO[C@H](C)Cc1cnc2c(N)ncnn12)OCOC(=O)OC(C)C` the value was less than 1 µM.
The figure for `CC(C)OC(=O)OCOP(=O)(COC(C)Cc1ccc2c(=O)[nH]c(N)nn12)OCOC(=O)OC(C)C` (centres undefined) is less than 1 µM; for `CC(C)OC(=O)OCOP(=O)(CO[C@@H](C)Cc1cnn2c(N)ncnc12)OCOC(=O)OC(C)C` it is less than 1 µM; for `CC(C)OC(=O)[C@H](C)NP(=O)(CO[C@H](CF)Cc1cnn2c(N)ncnc12)Oc1ccccc1` (some centres undefined) it is less than 1 µM.
As to `CC(C)OC(=O)OCOP(=O)(CO[C@H](C)Cc1ccc2c(N)ncnn12)OCOC(=O)OC(C)C`, the EC50 is less than 1 µM.
